According to patent US9719110B2, “Method of increasing production of amorpha-4,11-diene and method of increasing production of natural rubber” (SUMITOMO RUBBER INDUSTRIES, LTD., priority 2014, dated 2017):

How the values were obtained:
[1] = tested on: 35S:ADS A. thaliana; test: amorpha-4,11-diene production in 35S:ADS A. thaliana seedlings cultured in MS liquid medium with inhibitor (GC-MS); assay type: in vivo, Arabidopsis thaliana
Protocol: The following experiment was performed to confirm that the attachment of the enzyme inhibitor squalestatin (squalene synthase inhibitor) had the effect of increasing production of amorpha-4,11-diene on 35S:ADS A. thaliana, which is an Arabidopsis thaliana into which had been introduced a gene encoding amorphadiene synthase (ADS).
The 35S:ADS A. thaliana is Arabidopsis thaliana in which a gene encoding ADS derived from Artemisia annua is overexpressed. It is properly managed as 433 7-5 line in Cell Technology Laboratory, Division of Advanced Science and Biotechnology, Graduate School of Engineering, Osaka University.
In order to sterilize 35S:ADS A. thaliana seeds, the seeds were immersed in a seed sterilization water (0.25% sodium hypochlorite solution, 1% SDS) for 20 minutes and then washed with sterilized water four times.
The seeds were plated on MS agar medium (Murashige and Skoog medium, including 4.4 g/L vitamins, 10 g/L sucrose, and 10 g/L agar) set to a pH of 5.8.
The plating was followed by vernalization for two or more days at 4° C. Thereafter, the seeds were cultured at 23° C. under long day conditions (16 hours light/8 hours dark) for seven days.
The resulting Arabidopsis thaliana seedlings were transferred to MS liquid media supplemented with squalestatin (SQS inhibitor) at squalestatin concentrations of 0, 1, 3, 5, 10, and 15 μmol/L, followed by further culturing for seven days with shaking at 23° C. under long day conditions (16 hours light/8 hours dark).
Amorpha-4,11-diene was extracted from the Arabidopsis thaliana plants by the following procedure. About 100 mg (wet weight) of Arabidopsis thaliana plants was placed in a mortar, to which was added about 5 mL of n-hexane. After 100 μL of a n-tetradecane solution was added as an internal standard, the mixture was subjected to grinding and extraction. The extract was once recovered, and the residue was combined with another 5 mL of fresh n-hexane, followed by grinding and extraction. The extract from the second extraction was combined with that from the first extraction. This cycle of operation was repeated twice. The resulting extract was passed through an anhydrous sodium sulfate column.
The eluate from the column was concentrated under reduced pressure to about 1 mL using a rotary evaporator, and then dried to a solid with a nitrogen blowing concentrator.
The dried solid was finally combined with 1 mL of n-hexane to prepare a sample for GC-MS analysis.
The GC-MS analysis was performed with a JMS-SUN200 mass spectrometer (JEOL) and a gas chromatograph (6890 series GC system: Agilent Technologies). […]
Instead of squalene synthase (SQS), squalene epoxidase (SQE), which is located one step downstream of SQS, was inhibited, and then the effect of increasing production of amorpha-4,11-diene was evaluated. […]

[2] = tested on: Taraxacum koksaghyz; test: natural rubber production in Taraxacum koksaghyz sprayed with inhibitor solution (rubber dry weight); assay type: in vivo
Protocol: The following experiment was performed to confirm that the attachment of the enzyme inhibitor squalestatin (squalene synthase inhibitor) to the rubber-producing plant Taraxacum koksaghyz had the effect of increasing production of natural rubber.
Taraxacum koksaghyz seeds were vernalized for two or more days at 4° C. and then planted in soil.
After planted in soil, the seeds were grown at 25° C. under 12 h light/12 h dark conditions for five months.
Squalestatin was dissolved at a concentration of 10 μmol/L in 0.1% dimethyl sulfoxide (DMSO) to prepare a squalestatin solution. Two of the thus grown Taraxacum koksaghyz plants were each sprayed with 50 mL of the squalestatin solution once a day for four days using a spray.
As a comparative example, another two Taraxacum koksaghyz individuals were sprayed with 50 mL of a 0.1% dimethyl sulfoxide (DMSO) solution without squalestatin once a day for four days using a spray.
On day 5 after initiation of the treatment, latex was recovered from the Taraxacum koksaghyz roots and immersed in ethanol for five hours to solidify natural rubber.
The solidified natural rubber was dried at room temperature for three days. Thereafter, the dry weight was measured, and the results were compared.

SMILES | amount of amorpha-4,11-diene inside Arabidopsis thaliana plants ([1]; treatment with 3 μmol/L or more of squalestatin, seven-day shake culture, FIG. 2) | Rubber dry weight ([2]; 10 μmol/L in 0.1% DMSO, 50 mL sprayed once a day for four days, latex from roots on day 5, average of two individuals) [mg] | increase in amount of natural rubber recovered versus plants not treated with squalestatin ([2]; 10 μmol/L, sprayed once a day for four days) [times] | amorpha-4,11-diene amount relative to treatment with the same concentration of squalestatin ([1]; 5 μmol/L) | increase in the production of amorpha-4,11-diene ([1]; terbinafine 1, 3 and 5 μmol/L, same procedure as Example 1) | accumulation of amorpha-4,11-diene ([1]; treatment with 5 μmol/L)
C=C(CC[C@]12O[C@H](C(=O)O)[C@@](O)(C(=O)O)[C@](C(=O)O)(O1)[C@H](OC(=O)/C=C/[C@@H](C)C[C@@H](C)CC)[C@H]2O)[C@@H](OC(C)=O)[C@H](C)Cc1ccccc1 [squalestatin] | increase | 4.2 | 2.5 | – | – | –
CN(C/C=C/C#CC(C)(C)C)Cc1cccc2ccccc12 [terbinafine] | – | – | – | a tenth or less | very little increase | about 0.004 μg gFW^-1
